Measured values published in ChEMBL document CHEMBL6078698, “Discovery of 6-Fluoro-5-{4-[(5-fluoro-2-methyl-3-oxo-3,4-dihydroquinoxalin-6-yl)methyl]piperazin-1-yl}-N-methylpyridine-2-carboxamide (AZD9574): A CNS-Penetrant, PARP1-Selective Inhibitor” (J Med Chem, 2024).
≈ marks a conversion by molar mass, not a printed value.

Tests used:
[1] = Inhibition of cell proliferation of human DLD-1 cells expressing BRCA2-/- incubated for 7 days by Sytox green dye based analysis; assay type: functional; details: DLD-1, 168 h
[2] = Ratio of unbound drug concentration in brain to plasma of rat; assay type: ADME, cell-free; details: for Kp uu: brain and plasma (unbound), read-out: K(p,uu,brain)
MDR1 (P-gp), BCRP = assay: Efflux ratio in MDCK-MDR1-BCRP cells; assay type: ADME, cell-based, Canis lupus familiaris; details: dog
hERG (KCNH2) = hERG (KCNH2) (Homo sapiens, UniProt Q12809); assay: (§1) Inhibition of hERG transfected in CHO cells by electrophysiology; assay type: toxicity, cell-based; details: human, CHO cells transfected with hERG
hERG (KCNH2), sequence (Q12809 whole entry): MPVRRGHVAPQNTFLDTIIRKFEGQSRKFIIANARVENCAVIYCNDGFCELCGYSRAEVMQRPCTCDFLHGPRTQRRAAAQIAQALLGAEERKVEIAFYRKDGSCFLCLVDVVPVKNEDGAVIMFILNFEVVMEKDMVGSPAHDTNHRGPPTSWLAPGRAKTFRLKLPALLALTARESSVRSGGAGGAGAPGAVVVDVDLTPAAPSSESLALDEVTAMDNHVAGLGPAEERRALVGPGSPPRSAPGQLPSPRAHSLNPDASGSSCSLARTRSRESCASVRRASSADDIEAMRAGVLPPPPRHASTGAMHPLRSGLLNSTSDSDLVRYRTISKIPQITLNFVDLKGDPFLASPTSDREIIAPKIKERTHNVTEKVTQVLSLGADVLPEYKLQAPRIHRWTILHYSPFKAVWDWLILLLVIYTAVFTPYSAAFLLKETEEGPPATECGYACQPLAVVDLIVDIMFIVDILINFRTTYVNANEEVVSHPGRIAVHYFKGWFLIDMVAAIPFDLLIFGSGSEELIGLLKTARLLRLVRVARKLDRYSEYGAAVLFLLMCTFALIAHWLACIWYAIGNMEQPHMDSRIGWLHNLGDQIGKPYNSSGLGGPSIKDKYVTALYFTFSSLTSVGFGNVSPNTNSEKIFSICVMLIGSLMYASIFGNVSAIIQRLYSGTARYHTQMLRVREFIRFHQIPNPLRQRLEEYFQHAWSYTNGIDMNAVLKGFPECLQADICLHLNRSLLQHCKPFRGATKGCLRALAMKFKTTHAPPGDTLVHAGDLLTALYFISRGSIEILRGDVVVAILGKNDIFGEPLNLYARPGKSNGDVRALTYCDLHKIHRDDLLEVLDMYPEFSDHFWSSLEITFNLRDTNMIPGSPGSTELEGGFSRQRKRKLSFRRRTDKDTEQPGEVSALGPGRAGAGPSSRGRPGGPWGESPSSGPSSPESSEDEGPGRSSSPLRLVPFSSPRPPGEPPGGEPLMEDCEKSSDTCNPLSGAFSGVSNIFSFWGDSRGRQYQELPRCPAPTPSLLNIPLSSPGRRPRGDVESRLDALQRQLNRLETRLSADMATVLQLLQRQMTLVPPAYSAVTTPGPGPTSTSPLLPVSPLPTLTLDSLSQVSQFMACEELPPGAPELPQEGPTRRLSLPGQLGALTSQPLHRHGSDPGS

[3] = Solubility of compound at pH 7.4; assay type: physicochemical; details: buffer
[4] = Lipophilicity, log D of compound at pH 7.4; assay type: physicochemical; details: buffer
[5] = Intrinsic clearance in human liver microsomes; assay type: ADME, Microsome; details: read-out: CLH
[6] = target: Poly [ADP-ribose] polymerase 1 (Homo sapiens, UniProt P09874); assay: Inhibition of N-terminal 6His-tagged full-length recombinant human PARP1 by fluorescence anisotropy assay
Poly [ADP-ribose] polymerase 1, sequence (P09874 whole entry): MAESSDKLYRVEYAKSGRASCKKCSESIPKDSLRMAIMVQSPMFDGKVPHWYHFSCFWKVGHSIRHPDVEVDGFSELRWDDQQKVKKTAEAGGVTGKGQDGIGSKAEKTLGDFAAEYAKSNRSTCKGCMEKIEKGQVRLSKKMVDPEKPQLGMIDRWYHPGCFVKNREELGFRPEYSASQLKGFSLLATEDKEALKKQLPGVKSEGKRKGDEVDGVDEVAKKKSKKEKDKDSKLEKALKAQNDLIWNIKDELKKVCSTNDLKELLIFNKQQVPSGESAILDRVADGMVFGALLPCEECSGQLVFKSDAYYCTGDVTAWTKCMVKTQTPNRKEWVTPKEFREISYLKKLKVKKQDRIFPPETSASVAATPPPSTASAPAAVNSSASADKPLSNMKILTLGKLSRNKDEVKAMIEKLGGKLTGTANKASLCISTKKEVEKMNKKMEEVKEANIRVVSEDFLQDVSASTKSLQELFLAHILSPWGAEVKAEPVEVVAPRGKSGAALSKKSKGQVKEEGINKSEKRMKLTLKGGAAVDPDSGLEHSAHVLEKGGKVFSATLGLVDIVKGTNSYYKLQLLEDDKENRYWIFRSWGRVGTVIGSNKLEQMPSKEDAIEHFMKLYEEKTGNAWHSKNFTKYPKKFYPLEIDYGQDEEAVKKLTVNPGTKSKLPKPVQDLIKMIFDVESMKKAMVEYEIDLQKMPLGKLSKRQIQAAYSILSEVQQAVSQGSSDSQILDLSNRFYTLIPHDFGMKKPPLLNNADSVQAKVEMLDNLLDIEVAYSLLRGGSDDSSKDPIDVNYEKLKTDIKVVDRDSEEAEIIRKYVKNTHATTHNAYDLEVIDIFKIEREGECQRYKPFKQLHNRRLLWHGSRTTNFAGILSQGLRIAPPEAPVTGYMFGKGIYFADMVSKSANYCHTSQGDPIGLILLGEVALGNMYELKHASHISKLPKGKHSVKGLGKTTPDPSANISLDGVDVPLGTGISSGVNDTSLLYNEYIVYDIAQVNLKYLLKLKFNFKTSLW

[7] = target: Poly [ADP-ribose] polymerase 2 (Homo sapiens, UniProt Q9UGN5); assay: Inhibition of N-terminal 6His-tagged full-length recombinant human PARP2 by fluorescence anisotropy assay
Poly [ADP-ribose] polymerase 2, sequence (Q9UGN5 whole entry): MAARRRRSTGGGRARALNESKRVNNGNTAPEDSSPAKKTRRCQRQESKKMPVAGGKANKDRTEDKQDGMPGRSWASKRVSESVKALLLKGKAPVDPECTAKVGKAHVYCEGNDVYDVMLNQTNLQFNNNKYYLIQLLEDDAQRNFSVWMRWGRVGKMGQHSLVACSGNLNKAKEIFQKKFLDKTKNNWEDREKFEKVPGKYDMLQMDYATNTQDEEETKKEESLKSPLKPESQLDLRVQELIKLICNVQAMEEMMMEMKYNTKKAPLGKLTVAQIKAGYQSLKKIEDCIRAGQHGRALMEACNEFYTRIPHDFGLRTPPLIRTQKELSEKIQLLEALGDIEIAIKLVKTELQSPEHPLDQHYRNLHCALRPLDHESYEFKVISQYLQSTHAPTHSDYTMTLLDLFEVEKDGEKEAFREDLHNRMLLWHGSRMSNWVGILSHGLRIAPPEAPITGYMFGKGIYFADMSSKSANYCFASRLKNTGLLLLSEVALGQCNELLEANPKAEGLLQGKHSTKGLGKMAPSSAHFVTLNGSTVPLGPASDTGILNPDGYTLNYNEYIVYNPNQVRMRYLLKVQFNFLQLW

[8] = target: Voltage-gated inwardly rectifying potassium channel KCNH2 (Homo sapiens, UniProt Q12809); assay: as §1; assay type: toxicity, cell-based
Voltage-gated inwardly rectifying potassium channel KCNH2, sequence (Q12809 whole entry): as the sequence (Q12809 whole entry) above

Question: Which IC50 [1] does the source give for `CCc1cc2cnc(CN3CCN(c4ccc(C(=O)NC)nc4)CC3)cc2[nH]c1=O` here?
Answer: 3 nM

Question: For `CCc1nc2ccc(CN3CCN(c4ccc(C(=O)NC)nc4)CC3)cc2[nH]c1=O`, which Kp uu [2] is on record?
Answer: 0.05

Question: For `CCc1cc2ccc(CN3CCN(c4ccc(C(=O)NC)nc4)CC3)cc2[nH]c1=O`, which IC50 [1] is on record?
Answer: 4 nM

Question: What about the efflux ratio (MDR1 (P-gp), BCRP) of the same compound?
Answer: 2.8

Question: What about the Kp uu [2] of the same compound?
Answer: 0.1

Question: And the IC50 (hERG (KCNH2))?
Answer: 21000 nM

Question: For `CCc1nc2ccc(CN3CCN(c4ccc(C(=O)NC)nc4Cl)CC3)cc2[nH]c1=O`, which IC50 [1] is on record?
Answer: 1 nM

Question: And the efflux ratio (MDR1 (P-gp), BCRP)?
Answer: 6.7

Question: What about the solubility [3] of the same compound?
Answer: 8 µM (≈ 3.53 µg/mL)

Question: What about the logD [4] of the same compound?
Answer: 3

Question: And the microsomal CLint [5]?
Answer: 10 µL/min/mg

Question: For `CCc1nc2ccc(CN3CCN(c4ccc(C(=O)NC)nc4F)CC3)cc2[nH]c1=O`, which IC50 [1] is on record?
Answer: 1 nM

Question: What about the efflux ratio (MDR1 (P-gp), BCRP) of the same compound?
Answer: 2

Question: What about the Kp uu [2] of the same compound?
Answer: 0.1

Question: And the solubility [3]?
Answer: 4 µM (≈ 1.7 µg/mL)

Question: And the logD [4]?
Answer: 2.7

Question: What about the microsomal CLint [5] of the same compound?
Answer: 8 µL/min/mg

Question: Which results are given for `CCc1nc2ccc(CN3CCN(c4ccc(C(=O)NC)nc4C)CC3)cc2[nH]c1=O`?
Answer: IC50 [1]: 2 nM; efflux ratio (MDR1 (P-gp), BCRP): 2.2; solubility [3]: 13 µM (≈ 5.47 µg/mL); logD [4]: 2.9; microsomal CLint [5]: 10 µL/min/mg

Question: What does the source list for `CCc1cc2ccc(CN3CCN(c4ccc(C(=O)NC)nc4C)CC3)cc2[nH]c1=O`?
Answer: IC50 [6]: 5 nM; IC50 [7]: 1500 nM; IC50 [1]: 2 nM; IC50 [8]: 17000 nM; solubility [3]: 3 µM (≈ 1.26 µg/mL); logD [4]: 3.3; microsomal CLint [5]: 19 µL/min/mg

Question: With `CCc1nc2ccc(CN3CCN(c4ccc(F)nc4C)CC3)cc2[nH]c1=O` as the compound, how does the IC50 [6] read?
Answer: 5 nM

Question: And the IC50 [7]?
Answer: 53000 nM

Question: What about the IC50 [1] of the same compound?
Answer: 10 nM

Question: What about the efflux ratio (MDR1 (P-gp), BCRP) of the same compound?
Answer: 1.3

Question: And the Kp uu [2]?
Answer: 0.36

Question: What about the IC50 [8] of the same compound?
Answer: 11000 nM

Question: What about the solubility [3] of the same compound?
Answer: 30 µM (≈ 11.4 µg/mL)

Question: What about the logD [4] of the same compound?
Answer: 3.3

Question: What about the microsomal CLint [5] of the same compound?
Answer: 13 µL/min/mg

Question: Which IC50 [1] does the source give for `CCc1nc2ccc(CN3CCN(c4ccc(C(=O)NC)nc4F)CC3)c(F)c2[nH]c1=O` here?
Answer: 5 nM

Question: What about the “K(p,uu,brain)” value ([2]; brain) of the same compound?
Answer: 0.43

Question: And the IC50 (hERG (KCNH2))?
Answer: > 40000 nM

Question: And the solubility [3]?
Answer: < 11 µM

Question: What about the logD [4] of the same compound?
Answer: 2.6

Question: And the microsomal CLint [5]?
Answer: < 5 µL/min/mg

Question: For `CCc1nc2ccc(CN3CCN(c4cnc(F)cc4C)CC3)cc2[nH]c1=O`, which IC50 [6] is on record?
Answer: 11 nM

Question: And the IC50 [7]?
Answer: > 67000 nM

Question: What about the IC50 [1] of the same compound?
Answer: 13 nM

Question: And the efflux ratio (MDR1 (P-gp), BCRP)?
Answer: 1

Question: And the Kp uu [2]?
Answer: 0.2

Question: What about the IC50 [8] of the same compound?
Answer: 23000 nM

Question: And the solubility [3]?
Answer: 9 µM (≈ 3.43 µg/mL)

Question: And the logD [4]?
Answer: 3.3

Question: And the microsomal CLint [5]?
Answer: 19 µL/min/mg

Question: Which results are given for `CCc1nc2ccc(CN3CCN(c4ccc(C(=O)NC)nc4F)CC3)c(C)c2[nH]c1=O`?
Answer: IC50 [7]: > 100000 nM; IC50 [1]: 12 nM; solubility [3]: < 2 µM; logD [4]: 3.1; microsomal CLint [5]: < 3 µL/min/mg

Question: What does the source list for `CCc1nc2ccc(CN3CCN(c4ccc(C(=O)NC)nc4F)CC3)c(Cl)c2[nH]c1=O`?
Answer: IC50 [1]: 17 nM; efflux ratio (MDR1 (P-gp), BCRP): 0.4; IC50 (hERG (KCNH2)): > 40000 nM; solubility [3]: 20 µM (≈ 9.18 µg/mL); logD [4]: 3.1; microsomal CLint [5]: 10 µL/min/mg
